Source: the NIST ThermoML archive (doi:10.1016/j.tca.2013.06.017)
Numbers after ± are expanded uncertainties.

Assays:
[1] = wn = mass fraction of the nth substance listed; conditions: 298.15 K, 101 kPa, Liquid; for viscosity: Capillary tube (Ostwald / Ubbelohde) method; for speed of sound: Sing-around technique in a fixed-path interferometer; for mass density: Vibrating tube method
[2] = refractive index (Na D-line) (dimensionless); wn = mass fraction of the nth substance listed; conditions: 298.15 K, 101 kPa, Liquid, Standard Abbe refractometry

For `O=[N+]([O-])[O-].O=[N+]([O-])[O-].[Ba+2]` [barium dinitrate] + O, the viscosity ([1]; w1 = 0.01) was 0.904 ± 0.008 mPa·s, the viscosity ([1]; w1 = 0.03) was 0.91 ± 0.008 mPa·s and the viscosity ([1]; w1 = 0.05) was 0.916 ± 0.008 mPa·s. The speed of sound ([1]; w1 = 0.01) was 1512.7 ± 1.2 m/s, the speed of sound ([1]; w1 = 0.03) was 1516.4 ± 1.2 m/s and the speed of sound ([1]; w1 = 0.05) was 1519.3 ± 1.2 m/s. It also gave a mass density ([1]; w1 = 0.01) of 997.37 ± 0.05 kg/m3, a mass density ([1]; w1 = 0.03) of 998.48 ± 0.05 kg/m3 and a mass density ([1]; w1 = 0.05) of 999.56 ± 0.05 kg/m3. It also gave a refractive index ([2]; w1 = 0.01) of 1.3327 ± 0.0008, a refractive index ([2]; w1 = 0.03) of 1.3334 ± 0.0008 and a refractive index ([2]; w1 = 0.05) of 1.3342 ± 0.0008.
